# Columns and labels:
# E0771 cells = test: Western blot of control and EnnA-treated cells; type: cell-based, murine
# Description: (§1) FIG. 3A-3B are autoradiographs of a Western blot showing expression of the indicated proteins in control (left lane) and 0.5 μM EnnA-treated (right lane) E0771 (FIG. 3A) and AT3 (FIG. 3B) cells. FIG. 3C is a graph showing FACS analysis of PD-L1 level in AT3 cells. FIGS. 3D-3K are graphs showing qPCR analysis of the mRNA level of cytokines TNFa (FIG. 3D), IL-6 (FIG. 3E), TGFb1 (FIG. 3F) and IL-10 (FIG. 3G), the chemokines S100a9 (FIG. 3J) and CCL3 (FIG. 3K), as well as PDL1 (FIG. 3H) and IDO (FIG. 3I). FIGS. 3L-3Q are micrographs of HEK293 cells transiently transfected with GFP-IDO fusion protein expressing or GFP alone plasmids for 24 h. Cells were then treated with 5 μM EnnA for 6 h and analyzed for green fluorescence and bright light. FIG. 3R is a line graph of μg/ml of tryptophan and its IDO-mediated product kynurenine using the previously reported HPLC-based assay.
# AT3 cells = test: Western blot of control and EnnA-treated cells; type: cell-based, murine; details: AT3, 0.5 μM EnnA
# Description: as §1
# [1] = test system: Hsp90 client proteins, Hsp70, Hsp27; test: Western blots of cytosols from cell lines treated with 17-AAG or EnnA; type: cell-based, human
# Excerpt: (§2) The first bar indicates 100% folding activity of RRL without inhibitor. PR22 indicates the antibody without PR but with RRL and EnnA. PR represents the antibody (PR22) with PR but without RRL. All other samples have PR22, PR, and RRL without (first bar) or with increased concentration of EnnA. FIGS. 1C-1E are line graphs of cell survival versus EnnA concentration (μM) in breast cancer cell lines Hs578T (FIG. 1C), […] (FIG. 1D) and MDA-MB231 (FIG. 1E) upon treatment with EnnA for 48 and 72 h. […] PR alone (PR), antibody (PR22)+RRL, PR+RRL without inhibitor (RRL), PR+RRL with 1 μM 17-AAG (17AAG) PR+RRL with 10 μM BEAU or EnnA. FIGS. 1G-1I are autoradiographs of Western blots of cytosols from various cell lines treated with 17-AAG (1 μM) or EnnA (3 μM) with antibodies against the specified proteins. FIG. 1J is an autoradiograph showing EnnA causes autophagy in Hs578T and MDA-MB453 cell lines. FIGS. 1K-1N are electron microscopy micrographs showing autophagosomes and reduced mitochondria content in Hs578T cells treated with DMSO or EnnA. FIGS. 1O-1P are fluorescence micrographs showing EnnA causing reduced mitochondria content in Hs578T cells. FIGS. 1Q-1BB are fluorescence micrographs showing mitophagy in Hsp578T cells treated with EnnA as indicated by colocalization of the mitochondria marker Cox4 and the autophagy marker LC3BII.
# [2] = test system: Hs587T and MDA-MB-453 cell lines; test: autophagy, mitochondria content and mitophagy in treated cancer cells; type: cell-based, human
# Excerpt: as §2
# MDA-MB-231 cell line = test: cell survival of breast cancer cell line upon treatment with EnnA; type: cell-based, human; details: MDA-MB-231, 48 and 72 h
# Excerpt: as §2
# [3] = test system: HER2+ MAD-MB-453 cell line; test: as above; type: cell-based, human; details: MAD-MB-453, 48 and 72 h
# Excerpt: as §2
# [4] = test system: Hs578T triple-negative cell line; test: as above; type: cell-based, human; details: 48 and 72 h
# Excerpt: as §2
smiles,measurement,setting,value
"CC[C@H](C)[C@H]1C(=O)O[C@H](C(C)C)C(=O)N(C)[C@@H]([C@@H](C)CC)C(=O)O[C@H](C(C)C)C(=O)N(C)[C@@H]([C@@H](C)CC)C(=O)O[C@H](C(C)C)C(=O)N1C [EnnA, Enniatin A]",IDO protein level,"E0771 cells; E0771 (FIG. 3A), 0.5 μM EnnA",severely reduced
same,Hsp70 protein,"E0771 cells; E0771, 0.5 μM EnnA",slightly increased
same,pAKT protein,"E0771 cells; E0771, 0.5 μM EnnA",destabilizes
same,protein expression of Hsp40,"E0771 cells; E0771, 0.5 μM EnnA",reduces
same,Hsp70 protein,AT3 cells,reduced
same,pAKT protein,AT3 cells,destabilizes
same,protein expression of Hsp40,AT3 cells,reduces
same,stability of Hsp90 client proteins,[1]; EnnA 3 μM,destabilization
same,induction of Hsp27,[1]; MAD-MB-453 cells,slightly induced
same,overexpression of Hsp70,"[1]; all cell lines tested, EnnA 3 μM",does not induce overexpression
same,mitochondria content in cancer cells,[2]; Hs578T cells,reduces
same,mitophagy,"[2]; Hs578T cells, Cox4 / LC3BII colocalization",induction of mitophagy
same,mode of cell death (apoptosis / autophagy),[2]; Hs587T and MDA-MB-453 cell lines,induces autophagy
same,cytotoxicity,MDA-MB-231 cell line,potent and concentration-dependent cytotoxicity
same,cytotoxicity,[3],potent and concentration-dependent cytotoxicity
same,cytotoxicity,[4],potent and concentration-dependent cytotoxicity

# Reference: patent publication US11446352B2, “Compositions and methods for inhibiting tumor-induced immune suppression” (priority 2017, dated 2022)
